The values below are quoted from earlier work in patent publication US9289389B2, “Method for producing matrix-type pharmaceutical solid preparation” (OTSUKA PHARMACEUTICAL CO., LTD., priority 2007, dated 2016).

The conditions of the first series: water 20° C.
As for `OC[C@H]1O[C@H](O[C@H]2[C@H](O)[C@@H](O)C(O)O[C@@H]2CO)[C@H](O)[C@@H](O)[C@@H]1O` (mixture of isomers) [maltose monohydrate], the “amount of water necessary to dissolve 1 g” value is 1.2 g. `OC[C@@H](O)[C@@H](O[C@@H]1O[C@H](CO)[C@H](O)[C@H](O)[C@H]1O)[C@H](O)[C@@H](O)CO` [lactitol]: the “amount of water necessary to dissolve 1 g” value was 1.8 g. Regarding `OC[C@H]1O[C@H](O[C@H]2O[C@H](CO)[C@@H](O)[C@H](O)[C@H]2O)[C@H](O)[C@@H](O)[C@@H]1O` [trehalose dihydrate], the “amount of water necessary to dissolve 1 g” value is 1.2 g.

Regarding `OC[C@@H](O)[C@H](O)[C@@H](O)CO` [xylitol], the “amount of water necessary to dissolve 1 g” value is reported as 1.6 g.

Still in this series, the particulars now being: water 25° C.
For the molecule `OC[C@@H](O)[C@@H](O)CO` [erythritol], the “amount of water necessary to dissolve 1 g” value was 3.3 g. For the molecule `OC[C@@H](O)[C@@H](O)[C@H](O)[C@@H](O)CO` [sorbitol], the “amount of water necessary to dissolve 1 g” value was 0.5 mL (g).

Still in this series, the particulars now being: water temperature not stated.
Consider `O=C(CO)[C@@H](O)[C@H](O)[C@H](O)CO` [fructose], for which the “amount of water necessary to dissolve 1 g of sugar and/or sugar alcohol” value (shortened to “amount … of sugar and/or sugar alcohol”) is listed as 0.3 g. Regarding `OC[C@@H](O)[C@@H](O[C@H]1O[C@H](CO)[C@@H](O)[C@H](O)[C@H]1O)[C@H](O)[C@@H](O)CO` [maltitol], the “amount … of sugar and/or sugar alcohol” value is on record as “easily soluble”. For `OC[C@H]1O[C@@](CO)(O[C@H]2O[C@H](CO)[C@@H](O)[C@H](O)[C@H]2O)[C@@H](O)[C@@H]1O` [sucrose], the “amount … of sugar and/or sugar alcohol” value was 0.5 g.
